{"source": "patent US10251865B2", "about": "“Method of activating regulatory T cells with alpha-2B adrenergic receptor agonists” (Allergan, Inc., priority 2010, dated 2019)", "key": {"[1]": {"system": "SNL Rat Model of Allodynic Neuropathic Pain", "assay": "Allodynia reversal (Von Frey) in the SNL Rat Model of Allodynic Neuropathic Pain", "format": "in vivo", "settings": "for % Allodynia Reversal 24 hr post / % Allodynia Reversal 7 day post / % Allodynia Reversal 23 day post: SNL rats; for blockade of the (long-term) analgesic effect by the immunosuppressant FK506: spinal nerve ligation model, result in words", "experimental": "The SNL (or Chung) Model in the rat is an accepted standard animal model of neuropathic pain and is thought to mimic the human causalgia condition with respect to symptoms (guarding behavior, mechanical allodynia) and alleviation by pharmacological agents. […] The SNL Model is performed by tightly ligating the L-5 and L-6 spinal nerves, which produces tactile allodynia or sensitivity to light touch as described (Kim and Chung, 1992). Male sprague-dawley rats (100-120 grams; Charles River, Wilmington, Mass.) were anesthetized through inhalation of an isoflurane/oxygen mix. The surgical site was shaved and prepared with betadine. An incision was made from the thoracic vertebra XIII toward down the sacrum. The muscle was separated from the spinal vertebra (left side) at the L4-S2 levels. The L6 vertebra was located and then the transverse process was carefully removed with a small rongeur to visually identify the L4-L6 spinal nerves. The L5 and L6 spinal nerves was isolated and tightly ligated with 6-0 silk thread. A complete homeostasis was confirmed and then the wound was sutured. The duration of the surgery was approximately 20 minutes. A small amount of antibiotic ointment was applied to the incised area and the animals were transferred to a plastic recovery cage under a regulated heat-temperature lamp. Animals were not given any topical or local anesthetics post-operatively because they will inhibit the development of the pain syndrome, which is the phenomenon to be studied.\nThe allodynia is quantitated in the animals having received the Chung surgery by stimulation with a series of 8 Von Frey hairs on the mid planter area of the surgical hind paw in the up-down manner as described in the literature (Dixon, 1980). Von Frey hairs are applied in an up-down manner depending on the response until the 50% threshold is established. The Von Frey hairs are applied to the plantar surface of the surgical paw with just enough force to bend them. A positive response is recorded if the paw is sharply withdrawn. Eight Von Frey hairs were used 3.61, 3.84, 4.08, 4.31, 4.56, 4.74, 4.93 and 5.18 yielding a gram force of 0.25-15 grams.\n[formula] • Mean±SEM: • Mean=average of allodynia reversals • SEM=STDEV/SQ ROOT of n\nTesting with compounds is done 2-3 weeks after surgery to establish stable allodynia. In all experimental animals, baseline measurements were taken prior to drug administration and then at 24 hours and 5-23 days post dosing with Alzet osmotic minipump. The investigator was blinded to the identity of the drug groups. The % allodynia reversal is calculated as: [(Postdrug threshold−Predrug threshold)/(15-Predrug threshold)]×100.\nCompound B was formulated in 50% DMSO (dimethyl sulfoxide; Sigma, St. Louis, Mo.). This solution was dosed orally TID at a dose of 0.3 or 1 mg/kg. For dosing in the osmotic minipumps (Model 1007D, Alzet Corp., Palo Alto, Calif.) the compound was loaded onto the pumps set to deliver a final dose of either 1 or 3 mg/kg/day. The vehicle for these studies is 50% DMSO.\nCompound C was formulated first in 100% DMSO (Sigma, St. Louis, Mo.), then diluted down in 30% DMSO for a 10 mg/ml solution; 15% DMSO for a 3 mg/ml solution and further dilutions were made in water. The compound was dosed orally TID at a dose of either 0.3 or 1 mg/kg for a total daily dose of 1 or 3 mg/kg/day, respectively."}, "[2]": {"system": "goblet cells and T cells in the conjunctiva", "assay": "Dry eye desiccating stress in mice, therapeutic mode, conjunctiva histology", "format": "in vivo", "settings": "3 mg/kg/day via osmotic minipump, mice previously exposed to blower, comparable to Cyclosporine A, FIG. 12", "source_text": "C57BL/6 (C57BL/6NTac) and B6.Cg/NTac-Foxn1nuNE9 were purchased from Taconic, Inc. (Germantown, N.Y.). Mice were used at 6-10 weeks of age. Animal studies approval was obtained from the Allergan Animal Care and Use Committee. All studies adhered to the Association for Research in Vision and Ophthalmology statement for the Use of Animals in Ophthalmic and Vision Research. As described in the literature dry eye was induced by treating mice with subcutaneous injections of scopolamine hydrobromide (0.5 mg/0.2 ml; Sigma-Aldrich, St. Louis, Mo.) three times a day alternating between the left and right flanks (Neiderkorn et al, 2006). Mice were placed in a cage containing perforated plastic screens on each side of the cage to permit airflow from fans (one fan on each side of the cage) for 16 hr/day in a hood (AirClean Systems, Raleigh, N.C.). Room humidity was kept below 40%. Desiccating stress (DS) was induced for 10 consecutive days. Spleens and cervical lymph nodes (CLN) were collected from mice subjected to DS and NS, and one donor-equivalent of either spleen or CLN CD4+ cells was transferred i.p. to syngeneic nude mice. One splenic equivalent of T cells was equal to 5×10^7 cells. Three days later samples were collected for analysis. For tear collection, 1.5 μL of PBS was placed on each eye, and then 1 μL of tear was collected from both eyes and placed in 8 μL of cytokine assay buffer (Beadlyte; Millipore, Billerica, Mass.). Buffer and tear fluid were collected by capillary action using a 1 μL volume glass capillary tube (Drummond Scientific, Broomhall, Pa.) that was placed in the tear meniscus of the lateral canthus. Samples were frozen at −80° C. until the time of assay. Histological analysis was done by staining […] samples with antibody to CD4 and H&E staining to quantify goblet cells and T cells in the conjunctiva. To test the compounds in a therapeutic mode, the animals were exposed to the desiccating stress for two weeks and then allowed to rest for 7 days in regular housing cages. The animals were then re-exposed to desiccating stress for an additional 7 days to mimic relapsing form of chronic dry eye disease. Drug treatment with Compound B was started 2 days before re-exposure to desiccating stress. In both the studies Compound B was dosed at 3 mg/kg/day. Adoptive transfer, tear cytokine analysis and histological analysis were performed as described above."}, "[3]": {"settings": "1 mg/kg/day osmotic minipump for 7 days + 3 mg/kg FK506 BID SC for 5 days"}, "[4]": {"settings": "1 mg/kg/day osmotic minipump, treatment for 7 days"}, "[5]": {"settings": "1 mg/kg/day TID oral for 5 days + 3 mg/kg FK506 BID SC for 5 days, mean % MPE ± SEM"}, "[6]": {"settings": "1 mg/kg/day TID oral for 5 days, mean % MPE ± SEM"}}}
{"smiles": "CCC1=CC(Cc2c[nH]cn2)CCC1", "note": "(centres unmarked) [Compound B]", "values": [{"measurement": "% Allodynia Reversal 24 hr post", "setting": "[1]; [3]", "result": "57.06 ± 14.52", "unit": "%"}, {"measurement": "% Allodynia Reversal 7 day post", "setting": "[1]; [3]", "result": "16.43 ± 19.42", "unit": "%"}, {"measurement": "% Allodynia Reversal 24 hr post", "setting": "[1]; [4]", "result": "78.50 ± 7.85", "unit": "%"}, {"measurement": "% Allodynia Reversal 7 day post", "setting": "[1]; [4]", "result": "73.35 ± 11.95", "unit": "%"}, {"measurement": "blockade of the (long-term) analgesic effect by the immunosuppressant FK506", "setting": "[1]", "result": "blockable"}, {"measurement": "T cell infiltration into the conjunctiva", "setting": "[2]", "result": "significantly prevented"}, {"measurement": "goblet cell loss", "setting": "[2]", "result": "significantly prevented"}]}
{"smiles": "Clc1cccc(CNC2=NCCN2)c1Cl", "note": "[Compound C]", "values": [{"measurement": "% Allodynia Reversal 24 hr post", "setting": "[1]; [5]", "result": "49 ± 13.15", "unit": "%"}, {"measurement": "% Allodynia Reversal 23 day post", "setting": "[1]; [5]", "result": "21.82 ± 4.26", "unit": "%"}, {"measurement": "% Allodynia Reversal 24 hr post", "setting": "[1]; [6]", "result": "66.06 ± 10.71", "unit": "%"}, {"measurement": "% Allodynia Reversal 23 day post", "setting": "[1]; [6]", "result": "81.48 ± 6.00", "unit": "%"}, {"measurement": "blockade of the (long-term) analgesic effect by the immunosuppressant FK506", "setting": "[1]", "result": "able to block"}, {"measurement": "T cell infiltration into the conjunctiva", "setting": "[2]", "result": "significantly reduced"}, {"measurement": "goblet cell loss", "setting": "[2]", "result": "significantly reduced"}]}
